molecular target: T1, recombinant human GST-SYK (Homo sapiens, UniProt P43405); experiment: Homogeneous Time-Resolved Fluorescence (HTRF) assay for the recombinant human Syk enzyme; assay type: biochemical; settings: recombinant human GST-SYK 5 pM, ATP 25 μM, read-out: rhSYK Activity (IC50)
T1 construct: purchased Carna Biosciences 08-176
Protocol: Homogeneous Time-Resolved Fluorescence (HTRF) Assay for the Recombinant Human Syk Enzyme
A recombinant GST-hSYK fusion protein was used to measure potency of compounds to inhibit human Syk activity. […] Final volume of the reaction was 10 μL. Phosphorylation of the peptide was allowed to proceed for 45′ at room temperature. To quench the reaction and detect the phosphorylated product, 2 nM of a Europium-anti-phosphotyrosine antibody (Perkin Elmer #AD0161) and 70 nM SA-APC (Perkin-Elmer #CR130-100) were added together in 15 mM Tris pH 7.5, 40 mM EDTA, 0.01% tween 20. Final volume of the quenching solution was 10 μL.
The resulting HTRF signal was measured after 30 minutes on an EnVision (Perkin-Elmer) reader using a time-resolved fluorescence protocol.

For `CC(O)(c1ncc(-c2cc(Nc3nccc(C(F)(F)F)n3)cc3[nH]cnc23)s1)[C@H]1CC[C@H](C(=O)O)CC1` (single isomer, unassigned) [Example 2.12, (trans)-4-((R or S)-1-hydroxy-1-(5-(6-((4-(trifluoromethyl)pyrimidin-2-yl)amino)-1H-benzo[d]imidazol-4-yl)thiazol-2-yl)ethyl)cyclohexanecarboxylic acid], which IC50 is on record?
The IC50 was 0.5 nM.

With `CC1(C)C[C@@](O)(c2ncc(-c3cc(Nc4nccc(C(F)(F)F)n4)cc4cn[nH]c34)s2)CC[C@@H]1C(=O)O` (single isomer, unassigned) [Example 2.8] as the compound, how does the IC50 read?
Its IC50 is 0.552 nM.

With `CC1(C)C[C@@](O)(c2ncc(-c3ccnc4cc(Nc5nccc(C(F)(F)F)n5)ccc34)s2)CC[C@@H]1C(=O)O` (single isomer, unassigned) [Example 1.5, (1S,4R or 1R,4S)-4-hydroxy-2,2-dimethyl-4-(5-(7-((4-(trifluoromethyl)pyrimidin-2-yl)amino)quinolin-4-yl)thiazol-2-yl)cyclohexanecarboxylic acid] as the compound, how does the IC50 read?
The IC50 was 63.2 nM.

Which IC50 does the source give for `O=C(O)[C@H]1CC[C@](O)(c2ncc(-c3c[nH]c4ccc(Nc5nccc(C(F)F)n5)cc34)s2)CC1` [Example 1.12, cis 4-(5-(5-((4-(difluoromethyl)pyrimidin-2-yl)amino)-1H-indol-3-yl)thiazol-2-yl)-4-hydroxy-cyclohexanecarboxylic acid] here?
Its IC50 is 0.5 nM.

For `CC1(C)C[C@@H](C(C)(O)c2ncc(-c3cc(Nc4nccc(C(F)(F)F)n4)cc4cn[nH]c34)s2)CC[C@@H]1C(=O)O` (single isomer, unassigned) [Example 2.9, (trans)-4-((R or S)-1-hydroxy-1-[5-(5-{[4-(trifluoromethyl)pyrimidin-2-yl]amino}-1H-indazol-7-yl)-1,3-thiazol-2-yl]ethyl}-2,2-dimethylcyclohexanecarboxylic acid], which IC50 is on record?
The IC50 was 0.866 nM.

Which IC50 does the source give for `CCOC(=O)[C@H]1CC[C@](O)(c2ncc(-c3cc(Nc4nccc(OC(C)C)n4)cc4c3OC(C)(C)C(=O)N4)s2)CC1` [Example 2.6, ethyl cis-4-[5-(2,2-dimethyl-6-{[4-(1-methylethoxy)pyrimidin-2-yl]amino}-3-oxo-3,4-dihydro-2H-1,4-benzoxazin-8-yl)-1,3-thiazol-2-yl]-4-hydroxy-cyclohexanecarboxylate] here?
The IC50 was 7.1 nM.

Which IC50 does the source give for `O=C(O)[C@H]1CC[C@](O)(c2ncc(-c3c[nH]c4ccc(Nc5nccc(C(F)(F)F)n5)cc34)s2)CC1` [Example 1.8] here?
Its IC50 is 0.5 nM.

With `O=c1[nH]c2cc(Nc3nccc(C(F)(F)F)n3)cc(-c3cnc(C4(O)CCC4)s3)c2[nH]1` [Example 2.4, 4-[2-(1-hydroxycyclobutyl)-1,3-thiazol-5-yl]-6-{[4-(trifluoromethyl)pyrimidin-2-yl]amino}-1,3-dihydro-2H-benzimidazol-2-one] as the compound, how does the IC50 read?
The IC50 was 10.1 nM.

Which IC50 does the source give for `CC(O)(c1ncc(-c2cc(Nc3nccc(C(F)(F)F)n3)cc3[nH]ccc23)s1)[C@H]1CC[C@H](C(=O)O)CC1` (single isomer, unassigned) [Example 1.1, (trans)-4-((R or 5)-1-hydroxy-1-(5-(6-((4-(trifluoromethyl)pyrimidin-2-yl)amino)-1H-indol-4-yl)thiazol-2-yl)ethyl)cyclohexanecarboxylic acid] here?
Its IC50 is 0.5 nM.

Which IC50 does the source give for `CC1(C)Oc2c(cc(Nc3nccc(C(F)(F)F)n3)cc2-c2cnc(C(C)(O)C(F)(F)F)s2)NC1=O` (stereo not shown) [Example 2.5, 2,2-dimethyl-8-[2-(2,2,2-trifluoro-1-hydroxy-1-methylethyl)-1,3-thiazol-5-yl]-6-{[4-(trifluoromethyl)pyrimidin-2-yl]amino}-2H-1,4-benzoxazin-3(4H)-one] here?
The IC50 was 35.8 nM.

For `O=C(O)[C@H]1CC[C@](O)(c2ncc(-c3n[nH]c4ccc(Nc5nccc(C(F)(F)F)n5)cc34)s2)CC1` [Example 1.11], which IC50 is on record?
Its IC50 is 0.5 nM.

With `CC1(C)C[C@@](O)(c2ncc(-c3cc(Nc4nccc(C(F)(F)F)n4)cc4[nH]ccc34)s2)CC[C@@H]1C(=O)O` (single isomer, unassigned) [Example 1.3, (1S,4R or 1R,4S)-4-hydroxy-2,2-dimethyl-4-[5-(6-{[4-(trifluoromethyl)pyrimidin-2-yl]amino}-1H-indol-4-yl)-1,3-thiazol-2-yl]cyclohexane-carboxylic acid] as the compound, how does the IC50 read?
The IC50 was 0.06 nM.

For `Cn1ccc2c(-c3cnc([C@@]4(O)CC[C@H](C(=O)O)C(C)(C)C4)s3)cc(Nc3nccc(C(F)(F)F)n3)cc21` (single isomer, unassigned) [Example 1.4, (1S,4R or 1R,4S)-4-hydroxy-2,2-dimethyl-4-[5-(1-methyl-6-{[4-(trifluoromethyl)pyrimidin-2-yl]amino}-1H-indol-4-yl)-1,3-thiazol-2-yl]cyclohexane-carboxylic acid], which IC50 is on record?
The IC50 was 0.477 nM.

For `CC(C)Oc1ccnc(Nc2cc3c(c(-c4cnc([C@]5(O)CC[C@@H](C(=O)O)CC5)s4)c2)OC(C)(C)C(=O)N3)n1` [Example 2.7, cis-4-[5-(2,2-dimethyl-6-{[4-(1-methylethoxy)pyrimidin-2-yl]amino}-3-oxo-3,4-dihydro-2H-1,4-benzoxazin-8-yl)-1,3-thiazol-2-yl]-4-hydroxy-cyclohexanecarboxylic acid], which IC50 is on record?
Its IC50 is 0.366 nM.

For `CC1(C)C[C@@](O)(c2ncc(-c3c[nH]c4cc(Nc5nccc(C(F)(F)F)n5)ccc34)s2)CC[C@@H]1C(=O)O` (single isomer, unassigned) [Example 1.7, (1S,4R or 1R,4S)-4-hydroxy-2,2-dimethyl-4-(5-(6-((4-(trifluoromethyl)pyrimidin-2-yl)amino)-1H-indol-3-yl)thiazol-2-yl)cyclohexanecarboxylic acid], which IC50 is on record?
Its IC50 is 49 nM.

Which IC50 does the source give for `CC(O)(c1ncc(-c2ccnc3cc(Nc4nccc(C(F)(F)F)n4)ccc23)s1)[C@H]1CC[C@H](C(=O)O)CC1` (single isomer, unassigned) [Example 1.6] here?
Its IC50 is 61.6 nM.

Which IC50 does the source give for `CC(O)(c1ncc(-c2c[nH]c3cc(Nc4nccc(C(F)(F)F)n4)ccc23)s1)[C@H]1CC[C@H](C(=O)O)CC1` (single isomer, unassigned) [Example 1.9, (trans)-4-((R or S)-1-hydroxy-1-(5-(6-((4-(trifluoromethyl)pyrimidin-2-yl)amino)-1H-indol-3-yl)thiazol-2-yl)ethyl) cyclohexanecarboxylic acid] here?
Its IC50 is 39.9 nM.

With `CC(O)(c1ncc(-c2cc(Nc3nccc(C(F)(F)F)n3)cc3cn[nH]c23)s1)[C@H]1CC[C@H](C(=O)O)CC1` (single isomer, unassigned) [Example 2.10, (trans)-4-((R or S)-1-hydroxy-1-[5-(5-{[4-(trifluoromethyl)pyrimidin-2-yl]amino}-1H-indazol-7-yl)-1,3-thiazol-2-yl]ethyl}cyclohexanecarboxylic acid] as the compound, how does the IC50 read?
Its IC50 is 0.114 nM.

Which IC50 does the source give for `CC1(C)Oc2c(cc(Nc3nccc(C(F)(F)F)n3)cc2-c2cnc(C3(O)CCC3)s2)NC1=O` [Example 2.2, 8-[2-(1-hydroxycyclobutyl)-1,3-thiazol-5-yl]-2,2-dimethyl-6-{[4-(trifluoromethyl)pyrimidin-2-yl]amino}-2H-1,4-benzoxazin-3(4H)-one] here?
Its IC50 is 13.2 nM.

For `C[C@](O)(c1ncc(-c2cc(Nc3nccc(C(F)(F)F)n3)cc3[nH]ncc23)s1)C1CCC(C(=O)O)CC1` (single isomer, unassigned) [Example 2.11, (trans)-4-((R or S)-(1-hydroxy-1-(5-(6-((4-(trifluoromethyl)pyrimidin-2-yl)amino)-1H-indazol-4-yl)thiazol-2-yl)ethyl)cyclohexanecarboxylic acid], which IC50 is on record?
The IC50 was 0.5 nM.

With `CC1(C)Oc2c(cc(Nc3nccc(-c4c[nH]nn4)n3)cc2-c2cnc([C@]3(O)CC[C@@H](C(=O)O)CC3)s2)NC1=O` [Example 2.1, (cis)-4-(5-(6-((4-(1H-1,2,3-Triazol-4-yl)pyrimidin-2-yl)amino)-2,2-dimethyl-3-oxo-3,4-dihydro-2H-benzo[b][1,4]oxazin-8-yl)thiazol-2-yl)-4-hydroxycyclohexanecarboxylic acid] as the compound, how does the IC50 read?
The IC50 was 0.3 nM.

With `OC1(c2ncc(-c3cc(Nc4nccc(C(F)(F)F)n4)cc4[nH]ccc34)s2)CCC1` [Example 1.2, 1-[5-(6-{[4-(trifluoromethyl)pyrimidin-2-yl]amino}-1H-indol-4-yl)-1,3-thiazol-2-yl]cyclobutanol] as the compound, how does the IC50 read?
Its IC50 is 10.4 nM.

system: PGD2; experiment: not given; settings: dosed intranasally, phase I/II study, allergic rhinitis; cited from earlier work

Which clinical safety does the source give for `Oc1cccc(Nc2ncc(F)c(Nc3cccc(O)c3)n2)c1` [Example R112] here?
The clinical safety was “safe across a range of indicators”.

And the “decrease in PGD2” value?
Its value is “statistically significant decrease”.

system: not given; experiment: not given; settings: phase II clinical trial, allergic rhinitis; cited from earlier work

With `Oc1cccc(Nc2ncc(F)c(Nc3cccc(O)c3)n2)c1` [Example R112] as the compound, how does the efficacy versus placebo read?
The efficacy versus placebo was “lack of efficacy versus placebo”.

Source: US9822107B2, “Thiazole-substituted aminoheteroaryls as spleen tyrosine kinase inhibitors” (MERCK SHARP & DOHME CORP., priority 2013, dated 2017)
